# Patent US20090227521A1, “USE OF COMPOUNDS IN THE TREATMENT OF ISCHEMIA AND NEURODEGENERATION” (priority 2006, published 2009)
# Where “and” joins values, the source holds several entries; their conditions need not be identical. Equal values may be shown once. *: point of attachment. Cbz = O=C(OCc1ccccc1)*
# Columns and labels:
# EL-4 cells [1] = assay: Nuclear localization of proteasomes in starved EL-4 cells (immunohistochemistry); format: cell-based, mouse; details: starvation, 100 micro-M
# From the text: (§1) Cells and Culture Conditions. EL-4 is a Benzpyrene-induced lymphoma cell line derived from the C57BI/6 mouse strain. EL-4.wt and EL-4.TPPII^i are EL-4 cells transfected with the pSUPER vector (Brummelkamp, T R, Bernards, R, Agami, R. A system for stable expression of short interfering RNAs in mammalian cells. Science 2002; 296:550-3), empty versus containing the siRNA directed against TPPII. HeLa cells are human cervical carcinoma cells. For induction of stress, cells were starved by growth in 50%-75% Phosphate Buffered Saline (PBS) or gamma-irradiated 250-2000 Rad's; and incubated at 37° C. and 5.3% CO2. Our flow cytometric data represent live cells as determined by flow cytometric gating with Propidium Iodide (PI). For generation of stable transfectants, 5×10^6 cells were washed in PBS, then resuspended into 500 micro-I of PBS in a Bio-Rad gene-pulser and pulsed with 10 micro-g DNA and 250 V at 960 micro-F; and selected by resistance to G418. UbGV76-GFP is a ubiquitin-fusion construct that creates a rapidly degraded GFP molecule for monitoring 26S proteasome activity in live cells through flow cytometry (Dantuma, N. P, Lindsten, K., Glas, R., Jellne, M., and Masucci, M. G. 2000. Short-lived green fluorescent proteins for quantifying ubiquitin/proteasome-dependent proteolysis in living cells. Nat. Biotechnol. 18:538-43). […]
# HeLa cells = assay: Nuclear localization of proteasomes in starved HeLa cells (immunohistochemistry); format: cell-based, human; details: starvation, 100 micro-M
# From the text: as §1
# EL-4 cells [2] = assay: Western blotting of TPPII, proteasome alpha-3 and p53 in stressed EL-4 cells; format: cell-based, mouse
# From the text: as §1, with “18:538-43). Ub-R-GFP is a similar vector that also encodes a highly unstable GFP molecule degraded through the ubiquitin-proteasome pathway.” for “18:538-43).”
# Protein Purification, Peptidase Assays and Analysis of DNA Fragmentation. […] Cleavage activity was measured by emission at 460 nm in a LS50B Luminescence Spectrometer (Perkin Elmer, Boston, Mass.). […]
# Antibodies and Antisera. The following molecules were detected by the antibodies specified: GFP by rabbit anti-GFP serum (Molecular Probes Europe, Breda, The Netherlands); 19S proteasomal complexes by anti-Rpt6 (19S base ATPase subunit), 20S proteasomal complexes by (Affinity, Exeter, UK); For detection of TPPII we used chicken anti-TPPII serum (Immunsystem, Uppsala, Sweden). […]
# EL-4.Ub-R-GFP-Q112 cells = assay: Ub-R-GFP-Q112 poly-Glutamine reporter substrate degradation in stably transfected EL-4 cells (flow cytometry); format: cell-based, mouse; details: for Ub-R-GFP-Q112 substrate level: up to 72 hours, serum-free AIM-V medium
# From the text: Cells and Culture Conditions. EL-4 is a Benzpyrene-induced lymphoma cell line derived from the C57BI/6 mouse strain. EL-4.wt and EL-4.TPPII^i are EL-4 cells transfected with the pSUPER vector (Brummelkamp, T R, Bernards, R, Agami, R. A system for stable expression of short interfering RNAs in mammalian cells. Science 2002; 296:550-3), empty versus containing the siRNA directed against TPPII. HeLa cells are human cervical carcinoma cells. For induction of stress, cells were starved by growth in 50%-75% Phosphate Buffered Saline (PBS) or gamma-irradiated 250-2000 Rad's; and incubated at 37° C. and 5.3% CO2. Our flow cytometric data represent live cells as determined by flow cytometric gating with Propidium Iodide (PI). For generation of stable transfectants, 5×10^6 cells were washed in PBS, then resuspended into 500 micro-I of PBS in a Bio-Rad gene-pulser and pulsed with 10 micro-g DNA and 250 V at 960 micro-F; and selected by resistance to G418. UbGV76-GFP is a ubiquitin-fusion construct that creates a rapidly degraded GFP molecule for monitoring 26S proteasome activity in live cells through flow cytometry (Dantuma, N. P, Lindsten, K., Glas, R., Jellne, M., and Masucci, M. G. 2000. Short-lived green fluorescent proteins for quantifying ubiquitin/proteasome-dependent proteolysis in living cells. Nat. Biotechnol. 18:538-43). Ub-R-GFP is a similar vector that also encodes a highly unstable GFP molecule degraded through the ubiquitin-proteasome pathway. Ub-R-GFP-Q112 is the same substrate but contains an extended C-terminal with 112 glutamines (Verhoef, L. G., Lindsten, K., Masucci, M. G. and Dantuma, N. P. 2002. Aggregate formation inhibits proteasomal degradation of polyglutamine proteins. Hum Mol. Genet. 11:2689-700).
# Flow Cytometry. Fluorescence was quantified by a FACScalibur. Flow cytometric cell sorting of live cells was performed by incubation of cells for 5 minutes with 2 micro-g/ml of Propidium Iodide (PI) and subsequent sorting into PI^+ and PI^− populations with a FACSvantage. […]
# HeLa.UbGV76-GFP cells = assay: GFP reporter substrate fluorescence in HeLa.UbGV76-GFP cells (flow cytometry); format: cell-based, human; details: live cells, proteasomal inhibitor treatment
# From the text: as §1
# (§2) Flow Cytometry. Fluorescence was quantified by a FACScalibur. […]
# EL-4.Ub-R-GFP cells = assay: GFP reporter substrate fluorescence in EL-4.Ub-R-GFP cells (flow cytometry); format: cell-based, mouse; details: live cells, proteasomal inhibitor treatment
# From the text: as §1, §2
# Subtilisin = details: bacterial homologue of eukaryotic TPP II; cited from earlier work
# TPP II = biological target: T1, TPP II (Mus musculus, UniProt Q64514); assay: Inhibition of cleavage of AAF-AMC by enriched TPP II (peptidase assay); format: biochemical; details: for cleavage of AAF-AMC, mean: mean of three
# T1 construct: 1 ug of high molecular weight protein was used as enzyme in peptidase assays; endogenous in cells
# Protocol: It is not necessary to achieve a particularly high level of purification, and conventional simple techniques can be used to obtain TPP II of sufficient quality to use in a screening method. In one non-limiting example of purification of TPP II, 100×10^6 cells (such as EL-4 cells) were sedimented and lysed by vortexing in glass beads and homogenisation buffer (50 mM Tris Base pH 7.5, 250 mM Sucrose, 5 mM MgCl2, 1 mM DTT). Cellular lysates were subjected to differential centrifugation; first the cellular homogenate was centrifuged at 14,000 rpm for 15 min, and then the supernatant was transferred to ultra-centrifugation tubes. Next the sample was ultra-centrifugated at 100,000×g for 1 hour, and the supernatant (denoted as cytosol in most biochemical literature) was subjected to 100,000×g centrifugation for 5 hours, which sedimented high molecular weight cytosolic proteins/protein complexes. The resulting pellet dissolved in 50 mM Tris Base pH 7.5, 30% Glycerol, 5 mM MgCl2, and 1 mM DTT, and 1 ug of high molecular weight protein was used as enzyme in peptidase assays.
# It is possible to test the activity of TPP II using for example the substrate AAF-AMC (Sigma, St. Louis, Mo.). This may for example be used at 100 uM concentration in 100 ul of test buffer composed of 50 mM Tri Base pH 7.5, 5 mM MgCl2 and 1 mM DTT. It is possible to stop reactions using dilution with 900 ul 1% SDS solution. Cleavage activity may be measured for example by emission at 460 nm in a LS50B Luminescence Spectrometer (Perkin Elmer, Boston, Mass.).
# Protein Purification, Peptidase Assays and Analysis of DNA Fragmentation. 100×10^6 cells were sedimented and lysed by vortexing in glass beads and homogenisation buffer (50 mM Tris Base pH 7.5, 250 mM Sucrose, 5 mM MgCl2, 1 mM DTT). Cellular lysates were submitted to differential centrifugation where a supernatant from a 1 hour centrifugation at 100,000×g (cytosol) was submitted to 100,000×g centrifugation for 3-5 hours, which sedimented high molecular weight cytosolic proteins/protein complexes. The resulting pellet dissolved in 50 mM Tris Base pH 7.5, 30% Glycerol, 5 mM MgCl2, and 1 mM DTT, and 1 micro-g of high molecular weight protein was used as enzyme in peptidase assays or in Western blotting for TPP II expression. To test the activity of TPP II we used the substrate AAF-AMC (Sigma, St. Louis, Mo.), at 100 micro-M concentration in 100 micro-I of test buffer composed of 50 mM Tri Base pH 7.5, 5 mM MgCl2 and 1 mM DTT. Cleavage activity was measured by emission at 460 nm in a LS50B Luminescence Spectrometer (Perkin Elmer, Boston, Mass.). For analysis of DNA fragmentation cells were seeded in 12-well plates at 10^6 cells/ml and exposed to 25 micro-M etoposide, a DNA topoisomerase II inhibitor commonly used as an apoptosis-inducing agent, to starvation (50% PBS). Cells were seeded at 10^6 cells/ml in 12-well plates and incubated for the indicated times, usually 18-24 hours. DNA from EL-4 control and adapted cells was purified by standard chloroform extraction, and 2.5 micro-g of DNA was loaded on 1.8% agarose gel for detection of DNA from apoptotic cells.
# TPP II protein was enriched, and then a TPP II-preferred fluorogenic substrate AAF-AMC was used. 100×10^6 cells were sedimented and lysed by vortexing in glass beads and homogenisation buffer (50 mM Tris Base pH 7.5, 250 mM Sucrose, 5 mM MgCl2, 1 mM DTT). Cellular lysates were subjected to differential centrifugation; first the cellular homogenate was centrifuged at 14,000 rpm for 15 min, and then the supernatant was transferred to ultra-centrifugation tubes. Next the sample was ultra-centrifugated at 100,000×g for 1 hour, and the supernatant (denoted as cytosol in most biochemical literature) was subjected to 100,000×g centrifugation for 5 hours, which sedimented high molecular weight cytosolic proteins/protein complexes. […]
# T1 sequence (Q64514 2-1262 limits assumed): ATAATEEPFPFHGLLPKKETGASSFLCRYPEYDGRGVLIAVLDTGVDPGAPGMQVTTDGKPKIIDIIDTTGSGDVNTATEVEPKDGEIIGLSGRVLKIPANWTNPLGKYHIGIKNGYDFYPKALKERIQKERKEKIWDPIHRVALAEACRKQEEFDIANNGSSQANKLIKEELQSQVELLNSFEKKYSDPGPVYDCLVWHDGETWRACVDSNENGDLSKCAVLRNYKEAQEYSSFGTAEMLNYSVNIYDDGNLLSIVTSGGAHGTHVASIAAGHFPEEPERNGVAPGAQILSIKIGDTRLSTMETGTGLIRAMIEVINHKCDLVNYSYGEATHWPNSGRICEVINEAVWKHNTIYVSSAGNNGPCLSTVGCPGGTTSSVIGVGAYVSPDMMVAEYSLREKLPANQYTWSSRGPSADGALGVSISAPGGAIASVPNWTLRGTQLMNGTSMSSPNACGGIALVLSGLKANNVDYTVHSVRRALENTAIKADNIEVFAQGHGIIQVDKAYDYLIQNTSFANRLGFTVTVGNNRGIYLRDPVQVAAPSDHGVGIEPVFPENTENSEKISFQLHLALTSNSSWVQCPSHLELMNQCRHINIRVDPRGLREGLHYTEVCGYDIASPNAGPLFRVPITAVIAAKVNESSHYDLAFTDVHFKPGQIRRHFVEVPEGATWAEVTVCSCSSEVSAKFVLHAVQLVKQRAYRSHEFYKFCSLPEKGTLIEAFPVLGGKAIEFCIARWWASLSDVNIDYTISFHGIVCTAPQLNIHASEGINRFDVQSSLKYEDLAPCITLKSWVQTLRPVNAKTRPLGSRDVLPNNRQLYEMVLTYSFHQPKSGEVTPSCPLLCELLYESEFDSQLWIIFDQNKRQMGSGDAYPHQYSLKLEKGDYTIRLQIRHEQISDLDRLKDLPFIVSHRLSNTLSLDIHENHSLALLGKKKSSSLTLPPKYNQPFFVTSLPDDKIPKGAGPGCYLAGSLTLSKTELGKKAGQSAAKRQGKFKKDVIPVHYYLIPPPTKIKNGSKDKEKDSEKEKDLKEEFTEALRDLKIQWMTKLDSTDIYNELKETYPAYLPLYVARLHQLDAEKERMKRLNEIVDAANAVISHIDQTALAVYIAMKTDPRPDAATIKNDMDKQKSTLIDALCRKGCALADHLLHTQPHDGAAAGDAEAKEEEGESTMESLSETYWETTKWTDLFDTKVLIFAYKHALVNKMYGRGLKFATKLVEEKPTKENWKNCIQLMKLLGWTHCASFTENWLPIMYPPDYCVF
molecule,measurement,setting,value
CCCCNC(=O)[C@@H]1Cc2ccccc2N1C(=O)[C@@H](N)CC [Butabindide],nuclear localization of proteasomes,EL-4 cells [1],inhibited nuclear localization of proteasomes
same,nuclear localization of proteasomes,HeLa cells,inhibited nuclear localization of proteasomes
same,stabilization of p53,"EL-4 cells [2]; gamma-irradiated (500 Rad) EL-4.wt cells, 100 micro-M from 2 hours before onset",prevent
same,Ub-R-GFP-Q112 substrate level,EL-4.Ub-R-GFP-Q112 cells; 100 micro-M,gradual decline
"CC(C)C[C@@H](/C=C/S(C)(=O)=O)NC(=O)[C@H](CC(C)C)NC(=O)[C@H](CC(C)C)NC(=O)Cc1cc(I)c(O)c([N+](=O)[O-])c1 [NLVS, 4-hydroxy-5-iodo-3-nitrophenylacetyl-Leu-Leu-Leu-vinyl sulphone]",rapid TPPII down regulation during wortmannin treatment,"EL-4 cells [2]; starved EL-4 cells, with 1 micro-M wortmannin",prevented
same,steady state levels of GFP-fluorescence,HeLa.UbGV76-GFP cells,strong increase
same,steady state levels of GFP-fluorescence,EL-4.Ub-R-GFP cells,strong increase
same,accumulation of Ub-R-GFP-Q112 substrate not degraded,EL-4.Ub-R-GFP-Q112 cells; treatment with NLVS,further increased accumulation
Cbz-Gly-Leu-Ala-OH [Z-GLA-OH],inhibition of Subtilisin,Subtilisin,inhibit
same,"cleavage of AAF-AMC, single determination",TPP II; compound at 1 nM,32.54 fluorometric units and 32.61 fluorometric units and 33.41 fluorometric units
same,"cleavage of AAF-AMC, mean",TPP II; compound at 1 nM,32.85 fluorometric units
same,"cleavage of AAF-AMC, single determination",TPP II; compound at 10 nM,21.74 fluorometric units and 21.93 fluorometric units and 24.44 fluorometric units
same,"cleavage of AAF-AMC, mean",TPP II; compound at 10 nM,22.70 fluorometric units
same,"cleavage of AAF-AMC, single determination",TPP II; compound at 100 nM,14.43 fluorometric units and 14.26 fluorometric units and 14.37 fluorometric units
same,"cleavage of AAF-AMC, mean",TPP II; compound at 100 nM,14.35 fluorometric units
same,"cleavage of AAF-AMC, single determination",TPP II; compound at 1 uM,11.43 fluorometric units and 11.9 fluorometric units and 11.46 fluorometric units
same,"cleavage of AAF-AMC, mean",TPP II; compound at 1 uM,11.60 fluorometric units
same,"cleavage of AAF-AMC, single determination",TPP II; compound at 10 uM,6.47 fluorometric units and 7.66 fluorometric units and 7.49 fluorometric units
same,"cleavage of AAF-AMC, mean",TPP II; compound at 10 uM,7.21 fluorometric units
same,"cleavage of AAF-AMC, single determination","TPP II; compound at 100 uM, arbitrary but relative units, lower = more inhibition",1.14 fluorometric units and 1.44 fluorometric units and 1.55 fluorometric units
same,"cleavage of AAF-AMC, mean",TPP II; compound at 100 uM,1.38 fluorometric units
same,TPPII expression,"EL-4 cells [2]; gamma-irradiated (500 Rad) EL-4.wt cells, 25 micro-M",strong reduction
same,Ub-R-GFP-Q112 substrate level,EL-4.Ub-R-GFP-Q112 cells; 25-microM,gradual decline
